# Species on record: Rattus norvegicus
# Assay: DrugMatrix - Regimen: Daily Repeat
# Format: toxicity, organism-based, Sprague-Dawley
# Design: regimen Daily Repeat, gender Male, age 6-8 weeks
# Conditions: in vivo, po, route oral GAVAGE, vehicle .5 % CMC; for ABSOLUTE BASOPHIL / ABSOLUTE EOSINOPHIL / ABSOLUTE LYMPHOCYTE / ABSOLUTE SEGMENTED NEUTROPHIL / BASOPHIL / EOSINOPHIL / ERYTHROCYTE COUNT / HEMATOCRIT / HEMOGLOBIN / LEUKOCYTE COUNT / LYMPHOCYTE / MEAN CORPUSCULAR HEMOGLOBIN / MEAN CORPUSCULAR HEMOGLOBIN CONCENTRATION / MEAN CORPUSCULAR VOLUME / MONOCYTE / NEUTROPHIL / NUCLEATED RED BLOOD CELLS / PLATELET COUNT: tissue Blood; for ALANINE AMINOTRANSFERASE / ASPARTATE AMINOTRANSFERASE / BLOOD UREA NITROGEN / CARBON DIOXIDE / CHLORIDE / CHOLESTEROL / CREATINE PHOSPHOKINASE / CREATININE / GLUCOSE / LACTATE DEHYDROGENASE / LIPASE / PHOSPHORUS / POTASSIUM / SODIUM / TOTAL BILIRUBIN / TOTAL PROTEIN / URIC ACID: tissue Plasma
# [1] = 30 mg/kg, 72 h, dose level Low, time 3 day
# [2] = 30 mg/kg, 120 h, dose level Low, time 5 day
# [3] = 490 mg/kg, 72 h, dose level High, time 3 day
# [4] = 490 mg/kg, 120 h, dose level High, time 5 day
compound,measurement,setting,value
NC(=O)N1c2ccccc2C=Cc2ccccc21 [CARBAMAZEPINE],ABSOLUTE BASOPHIL,[1],0 CELLS/uL
same,ABSOLUTE EOSINOPHIL,[1],182 CELLS/uL
same,ABSOLUTE LYMPHOCYTE,[1],15035.33 CELLS/uL
same,ABSOLUTE SEGMENTED NEUTROPHIL,[1],1745.67 CELLS/uL
same,BASOPHIL,[1],0%
same,EOSINOPHIL,[1],1%
same,ERYTHROCYTE COUNT,[1],5.25 x10E6/uL
same,HEMATOCRIT,[1],33.47%
same,HEMOGLOBIN,[1],12.6 G/DL
same,LEUKOCYTE COUNT,[1],17.3 x10E3/uL
same,LYMPHOCYTE,[1],86.67%
same,MEAN CORPUSCULAR HEMOGLOBIN,[1],24.03 pg
same,MEAN CORPUSCULAR HEMOGLOBIN CONCENTRATION,[1],37.67 G/DL
same,MEAN CORPUSCULAR VOLUME,[1],63.8 fL
same,MONOCYTE,[1],2%
same,NEUTROPHIL,[1],10.33%
same,NUCLEATED RED BLOOD CELLS,[1],0 /100WBC
same,PLATELET COUNT,[1],1486.67 x10E3/uL
same,ALANINE AMINOTRANSFERASE,[1],52 u/L
same,ASPARTATE AMINOTRANSFERASE,[1],78.33 u/L
same,BLOOD UREA NITROGEN,[1],16.33 mg/dL
same,CARBON DIOXIDE,[1],25.67 mmol/L
same,CHLORIDE,[1],101.67 MEQ/L
same,CHOLESTEROL,[1],69.67 mg/dL
same,CREATINE PHOSPHOKINASE,[1],157.33 u/L
same,CREATININE,[1],0.2 mg/dL
same,GLUCOSE,[1],143.33 mg/dL
same,LACTATE DEHYDROGENASE,[1],208 u/L
same,LIPASE,[1],9 u/L
same,PHOSPHORUS,[1],11.33 mg/dL
same,POTASSIUM,[1],6.9 MEQ/L
same,SODIUM,[1],145 MEQ/L
same,TOTAL BILIRUBIN,[1],0.2 mg/dL
same,TOTAL PROTEIN,[1],5.53 G/DL
same,URIC ACID,[1],1.57 mg/dL
same,ABSOLUTE BASOPHIL,[2],0 CELLS/uL
same,ABSOLUTE EOSINOPHIL,[2],0 CELLS/uL
same,ABSOLUTE LYMPHOCYTE,[2],16159 CELLS/uL
same,ABSOLUTE SEGMENTED NEUTROPHIL,[2],1742.33 CELLS/uL
same,BASOPHIL,[2],0%
same,EOSINOPHIL,[2],0%
same,ERYTHROCYTE COUNT,[2],5.72 x10E6/uL
same,HEMATOCRIT,[2],35.57%
same,HEMOGLOBIN,[2],13.07 G/DL
same,LEUKOCYTE COUNT,[2],18.27 x10E3/uL
same,LYMPHOCYTE,[2],88.33%
same,MEAN CORPUSCULAR HEMOGLOBIN,[2],22.87 pg
same,MEAN CORPUSCULAR HEMOGLOBIN CONCENTRATION,[2],36.73 G/DL
same,MEAN CORPUSCULAR VOLUME,[2],62.2 fL
same,MONOCYTE,[2],2%
same,NEUTROPHIL,[2],9.67%
same,NUCLEATED RED BLOOD CELLS,[2],0 /100WBC
same,PLATELET COUNT,[2],1400 x10E3/uL
same,ALANINE AMINOTRANSFERASE,[2],40 u/L
same,ASPARTATE AMINOTRANSFERASE,[2],84 u/L
same,BLOOD UREA NITROGEN,[2],19.67 mg/dL
same,CARBON DIOXIDE,[2],25.33 mmol/L
same,CHLORIDE,[2],106.67 MEQ/L
same,CHOLESTEROL,[2],60 mg/dL
same,CREATINE PHOSPHOKINASE,[2],371 u/L
same,CREATININE,[2],0.18 mg/dL
same,GLUCOSE,[2],138.67 mg/dL
same,LACTATE DEHYDROGENASE,[2],600.67 u/L
same,LIPASE,[2],8.67 u/L
same,PHOSPHORUS,[2],11.47 mg/dL
same,POTASSIUM,[2],6.31 MEQ/L
same,SODIUM,[2],144.97 MEQ/L
same,TOTAL BILIRUBIN,[2],0.17 mg/dL
same,TOTAL PROTEIN,[2],6.17 G/DL
same,URIC ACID,[2],1.2 mg/dL
same,ABSOLUTE BASOPHIL,[3],0 CELLS/uL
same,ABSOLUTE EOSINOPHIL,[3],197 CELLS/uL
same,ABSOLUTE LYMPHOCYTE,[3],13021 CELLS/uL
same,ABSOLUTE SEGMENTED NEUTROPHIL,[3],740.67 CELLS/uL
same,BASOPHIL,[3],0%
same,EOSINOPHIL,[3],1%
same,ERYTHROCYTE COUNT,[3],6.01 x10E6/uL
same,HEMATOCRIT,[3],37.5%
same,HEMOGLOBIN,[3],14.23 G/DL
same,LEUKOCYTE COUNT,[3],14.27 x10E3/uL
same,LYMPHOCYTE,[3],91.33%
same,MEAN CORPUSCULAR HEMOGLOBIN,[3],23.77 pg
same,MEAN CORPUSCULAR HEMOGLOBIN CONCENTRATION,[3],37.97 G/DL
same,MEAN CORPUSCULAR VOLUME,[3],62.57 fL
same,MONOCYTE,[3],2%
same,NEUTROPHIL,[3],5.67%
same,NUCLEATED RED BLOOD CELLS,[3],0 /100WBC
same,PLATELET COUNT,[3],1370 x10E3/uL
same,ALANINE AMINOTRANSFERASE,[3],67 u/L
same,ASPARTATE AMINOTRANSFERASE,[3],98.33 u/L
same,BLOOD UREA NITROGEN,[3],20.33 mg/dL
same,CARBON DIOXIDE,[3],23.67 mmol/L
same,CHLORIDE,[3],100.67 MEQ/L
same,CHOLESTEROL,[3],62.67 mg/dL
same,CREATINE PHOSPHOKINASE,[3],423.33 u/L
same,CREATININE,[3],0.18 mg/dL
same,GLUCOSE,[3],127 mg/dL
same,LACTATE DEHYDROGENASE,[3],617.67 u/L
same,LIPASE,[3],9.33 u/L
same,PHOSPHORUS,[3],11.33 mg/dL
same,POTASSIUM,[3],6.92 MEQ/L
same,SODIUM,[3],141.13 MEQ/L
same,TOTAL BILIRUBIN,[3],0.17 mg/dL
same,TOTAL PROTEIN,[3],5.83 G/DL
same,URIC ACID,[3],1.87 mg/dL
same,ABSOLUTE BASOPHIL,[4],0 CELLS/uL
same,ABSOLUTE EOSINOPHIL,[4],174 CELLS/uL
same,ABSOLUTE LYMPHOCYTE,[4],14815.33 CELLS/uL
same,ABSOLUTE SEGMENTED NEUTROPHIL,[4],1394.67 CELLS/uL
same,BASOPHIL,[4],0%
same,EOSINOPHIL,[4],1%
same,ERYTHROCYTE COUNT,[4],6.46 x10E6/uL
same,HEMATOCRIT,[4],39.9%
same,HEMOGLOBIN,[4],15.17 G/DL
same,LEUKOCYTE COUNT,[4],17.07 x10E3/uL
same,LYMPHOCYTE,[4],86.67%
same,MEAN CORPUSCULAR HEMOGLOBIN,[4],23.47 pg
same,MEAN CORPUSCULAR HEMOGLOBIN CONCENTRATION,[4],38.03 G/DL
same,MEAN CORPUSCULAR VOLUME,[4],61.8 fL
same,MONOCYTE,[4],4%
same,NEUTROPHIL,[4],8.33%
same,NUCLEATED RED BLOOD CELLS,[4],0.67 /100WBC
same,PLATELET COUNT,[4],1286 x10E3/uL
same,ALANINE AMINOTRANSFERASE,[4],89 u/L
same,ASPARTATE AMINOTRANSFERASE,[4],125 u/L
same,BLOOD UREA NITROGEN,[4],18.67 mg/dL
same,CARBON DIOXIDE,[4],23.67 mmol/L
same,CHLORIDE,[4],105 MEQ/L
same,CHOLESTEROL,[4],67.33 mg/dL
same,CREATINE PHOSPHOKINASE,[4],770 u/L
same,CREATININE,[4],0.14 mg/dL
same,GLUCOSE,[4],120 mg/dL
same,LACTATE DEHYDROGENASE,[4],265.67 u/L
same,LIPASE,[4],9.5 u/L
same,PHOSPHORUS,[4],12.47 mg/dL
same,POTASSIUM,[4],6.33 MEQ/L
same,SODIUM,[4],149.25 MEQ/L
same,TOTAL BILIRUBIN,[4],0.2 mg/dL
same,TOTAL PROTEIN,[4],6.23 G/DL
same,URIC ACID,[4],2.13 mg/dL

# Reference: ChEMBL document CHEMBL3885881, “DrugMatrix”
